Measured values reported in the supplement of paper PMC10307832.

Experiments:
Assay in all cases: relative viability (nuclei count vs DMSO), 5 days (fraction); higher = more cells survive
Selisistat + Navitoclax = compound: C1CC(C2=C(C1)C3=C(N2)C=CC(=C3)Cl)C(=O)N [Selisistat] + CC1(C)CCC(c2ccc(Cl)cc2)=C(CN2CCN(c3ccc(C(=O)NS(=O)(=O)c4ccc(N[C@H](CCN5CCOCC5)CSc5ccccc5)c(S(=O)(=O)C(F)(F)F)c4)cc3)CC2)C1 [Navitoclax] (partner 0.5 µM)
Summary of the method: (§1)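 For relative viability, nuclei counts in treated wells were divided by those in vehicle wells. Lung cancer cell lines had been pin-tool dosed in 1536-well plates the day after seeding and cultured for 5 days, then fixed and stained in one step (final 0.05% Triton X-100, 1% formaldehyde, 1 ug/ml Hoechst) and imaged at 4×. Doses were one drug alone or a fixed anchor-drug dose plus five library-drug doses (not always all listed) in √10 steps, and values are duplicate-plate medians.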

Serdemetan = compound: c1ccc2c(CCNc3ccc(Nc4ccncc4)cc3)c[nH]c2c1 [Serdemetan]
Summary of the method: (§2)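 For viability, nuclei in each treated well were divided by nuclei in vehicle wells and the median across plates was taken. Lung cancer cell lines in 1536-well plates were pinned with five library-drug doses (not always all listed) spaced by √10, cultured 5 days without medium change, and imaged at 4× after Hoechst staining, with plates passing only at control CV below 25% and at least one doubling.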

Selisistat = compound: C1CC(C2=C(C1)C3=C(N2)C=CC(=C3)Cl)C(=O)N [Selisistat]
Summary of the method: as §2

Selisistat + Foretinib = compound: C1CC(C2=C(C1)C3=C(N2)C=CC(=C3)Cl)C(=O)N [Selisistat] + COc1cc2c(Oc3ccc(NC(=O)C4(C(=O)Nc5ccc(F)cc5)CC4)cc3F)ccnc2cc1OCCCN1CCOCC1 [Foretinib] (partner 0.25 µM)
Summary of the method: as §1

Cell Line | relative viability (Selisistat + Navitoclax; first compound 0.4 µM) | relative viability (Selisistat + Navitoclax; first compound 1.265 µM) | relative viability (Selisistat + Navitoclax; first compound 4 µM) | relative viability (Selisistat + Navitoclax; first compound 12.65 µM) | relative viability (Selisistat + Navitoclax; first compound 40 µM) | relative viability (Serdemetan; 0.04 µM) | relative viability (Serdemetan; 0.1265 µM) | relative viability (Serdemetan; 0.4 µM) | relative viability (Serdemetan; 1.265 µM) | relative viability (Serdemetan; 4 µM) | relative viability (Selisistat; 0.4 µM) | relative viability (Selisistat; 1.265 µM) | relative viability (Selisistat; 4 µM) | relative viability (Selisistat; 12.65 µM) | relative viability (Selisistat; 40 µM) | relative viability (Selisistat + Foretinib; first compound 0.4 µM) | relative viability (Selisistat + Foretinib; first compound 1.265 µM) | relative viability (Selisistat + Foretinib; first compound 4 µM) | relative viability (Selisistat + Foretinib; first compound 12.65 µM) | relative viability (Selisistat + Foretinib; first compound 40 µM)
HCC-44 | 1.03 | 0.955 | 0.911 | 0.997 | 1.02 | 0.935 | 0.982 | 0.944 | 0.854 | 0.962 | 1.01 | 0.738 | 1.08 | 0.982 | 1.06 |  |  |  |  | 
HCC-827 | 1.03 | 0.992 | 1.01 | 1.01 | 1.01 | 1.04 | 0.972 |  | 0.862 | 0.83 | 1.02 | 1.04 | 0.952 | 0.975 | 1 | 1.17 | 1.09 | 1.02 | 0.9 | 1.08
NCI-H1623 |  |  |  |  |  | 0.969 | 1.02 | 0.961 | 0.815 | 0.713 | 1.08 | 1.08 | 0.843 | 1.09 | 1.18 | 0.963 | 0.782 | 0.614 | 0.918 | 0.846
NCI-H2347 | 0.846 | 0.847 | 0.588 | 0.792 | 0.853 | 0.982 | 0.887 | 0.903 | 0.603 | 0.7 | 1.02 | 1.09 | 0.716 | 0.993 | 0.99 | 0.918 | 1.04 |  | 1.06 | 0.989
PC-14 | 0.963 | 1.04 | 1.03 | 1.04 | 1.07 | 0.966 | 0.972 | 0.689 | 0.907 | 0.728 | 1.02 | 0.957 | 0.891 | 0.954 | 1.09 | 0.946 | 0.982 | 0.826 | 0.908 | 0.946
NCI-H1651 | 0.902 | 0.974 | 0.934 | 1 | 0.945 | 0.847 | 0.899 | 0.832 | 0.507 | 0.399 | 0.995 | 0.958 | 0.893 | 0.924 | 0.949 | 0.785 | 0.693 | 0.864 | 0.897 | 0.739
HARA | 1.17 | 1.08 | 1.17 | 1.13 | 1.22 | 0.938 | 1.01 | 0.937 | 0.757 | 0.877 | 0.955 | 0.938 | 0.749 | 0.964 | 1.07 | 0.865 | 0.905 | 0.773 | 0.839 | 0.512
NCI-H1563 |  |  |  |  |  | 0.866 | 0.849 | 0.8 | 0.622 | 0.744 | 0.972 | 0.886 | 0.906 | 0.865 | 0.902 | 1.05 | 0.91 | 0.941 | 0.9 | 0.809
ABC-1 |  |  |  |  |  | 0.948 | 0.923 | 0.994 | 0.603 | 0.56 | 0.897 | 0.869 | 0.647 | 0.772 | 0.819 | 0.927 | 1.04 | 0.929 | 1.08 | 1.16
SW 900 |  |  |  |  |  | 0.876 | 0.941 | 0.926 | 0.547 | 0.666 | 1 | 0.801 | 0.656 | 0.846 | 0.858 | 0.921 | 0.778 | 0.798 | 0.955 | 0.977
NCI-H1648 |  |  |  |  |  |  | 1.07 | 0.924 | 0.472 | 0.358 | 0.769 | 0.787 | 1.04 | 1.19 | 1.19 |  |  |  |  | 
NCI-H1792 | 0.609 | 0.611 |  | 0.629 | 0.594 | 0.934 | 0.674 | 0.848 | 0.593 | 0.62 | 0.927 | 1.18 |  | 0.862 | 0.855 |  |  |  |  | 
LCLC-103H |  |  |  |  |  | 0.993 | 1.01 | 0.995 | 0.877 | 1.04 | 1.06 | 1.05 | 0.819 | 0.947 | 0.988 | 0.691 | 0.851 | 0.748 | 0.683 | 0.805
NCI-H358 |  |  |  |  |  | 0.897 | 0.905 | 0.901 | 0.81 | 0.798 | 0.989 | 0.925 |  | 1.06 | 0.976 | 0.808 | 0.763 | 0.553 | 0.727 | 0.833
NCI-H2342 |  |  |  |  |  | 1.17 | 1.13 | 1.08 | 0.84 | 0.69 | 1.06 | 0.881 | 0.908 | 0.94 | 0.928 | 0.997 | 0.986 | 0.896 | 1.09 | 1.07
NCI-H522 |  |  |  |  |  | 1.03 | 0.938 | 0.943 | 0.605 | 1.09 | 0.899 | 0.964 | 0.763 | 0.806 | 0.885 |  |  |  |  | 
NCI-H650 |  |  |  |  |  | 0.896 | 0.889 | 0.934 | 0.878 | 0.764 | 0.948 | 0.868 | 1.08 | 0.886 | 1.06 | 1.02 | 1.03 | 1.24 | 0.98 | 0.992
NCI-H661 |  |  |  |  |  | 0.974 | 0.977 | 1.01 | 0.815 | 0.94 | 1.02 | 1 | 1 | 0.901 | 0.906 | 1.06 | 1.04 | 0.977 | 0.936 | 0.876
